Eight molecules from patent publication US8030518B2, “1,4 diamino bicyclic retigabine analogues as potassium channel modulators” (Valeant Pharmaceuticals International, priority 2006, dated 2011) can be followed below.

One assay deals with T1, KCNQ2/3 heteromultimers (Rattus norvegicus, UniProt O88943+O88944).
T1 construct: endogenous in cells; host or cells: PC-12 cells differentiated with NGF-7s; no transfection described
The assay can be described thus: cell-based Rb+ efflux assay in PC-12 cells. Conditions: Rb+ efflux cellular assay. The protocol: Compounds of this invention formula were evaluated for activity toward potassium channels in a cell-based Rb^+ efflux assay. This cellular bioassay is believed to faithfully represent the M channel activities identified with KCNQ2/3 heteromultimers. […] Additionally, antiseizure activity in vivo was evaluated in a mouse maximal electroshock seizure (MES) model, and neurotoxicities were determined from a rotorod neurocognitive motor impairment model and open field observation.
PC-12 cells were grown at 37° C. and 5% CO2 in DMEM/F12 Medium (Dulbecco's Modified Eagle Medium with Nutrient Mix F-12, available from Invitrogen of Carlsbad, Calif.), supplemented with 10% horse serum, 5% fetal bovine serum, 2 mM glutamine, 100 U/ml penicillin, and 100 U/ml streptomycin. They were plated in poly-D-lysine-coated 96-well cell culture microplates at a density of 40,000 cells/well and differentiated with 100 ng/ml NGF-7s for 2-5 days. For the assay, the medium was aspirated, and the cells were washed once with 0.2 ml wash buffer (25 mM HEPES, pH 7.4, 150 mM NaCl, 1 mM MgCl2, 0.8 mM NaH2PO4, 2 mM CaCl2). The cells were then loaded with 0.2 ml Rb^+ loading buffer (wash buffer plus 5.4 mM […], 5 mM glucose) and incubated at 37° C. for 2 h. Attached cells were washed quickly three times with buffer (same as Rb^+ loading buffer, but containing 5.4 mM KCl instead of RbCl) to remove extracellular Rb^+. Immediately following the wash, 0.2 ml of depolarization buffer (wash buffer plus 15 mM KCl solution) with or without compounds was added to the cells to activate efflux of potassium ion channels. After incubation for 10 min at room temperature, the supernatant was carefully removed and collected. Cells were lysed by the addition of 0.2 ml of lysis buffer (depolarization buffer plus 0.1% Triton X-100) and the cell lysates were also collected. If collected samples were not immediately analyzed for Rb^+ contents by atomic absorption spectroscopy (see below), they were stored at 4° C. without any negative effects on subsequent Rb^+ analysis.
The concentrations of Rb^+ in the supernatants (Rb^+Sup) and the cell lysates (Rb^+Lys) were quantified using an ICR8000 flame atomic absorption spectrometer (Aurora Biomed Inc., Vancouver, B.C.) under conditions defined by the manufacturer. Samples 0.05 ml in volume were processed automatically from microtiter plates by dilution with an equal volume of Rb^+ sample analysis buffer and injection into an air-acetylene flame. The amount of Rb^+ in the sample was measured by absorption at 780 nm using a hollow cathode lamp as light source and a PMT detector. A calibration curve covering the range 0-5 mg/L Rb^+ in sample analysis buffer was generated with each set of plates. The percent Rb^+ efflux (F) was defined by F=[Rb^+Sup/(Rb^+Sup+Rb^+Lys)]×100%. […] The efflux (F) and compound concentration relationship was plotted to calculate an EC50 value, a compound's concentration for 50% of maximal Rb^+ efflux. Seizure Model Tests

In assay [1] the test system is maximal electroshock seizure. As to the kind of experiment: mouse maximal electroshock seizure (MES) test. Format: in vivo. More on the design: key: A: active; B: inactive. Conditions: ip dosing of 12.5 mg/kg. The text has this:
(§1) The MES testing protocol is based on procedures established at the National Institute of Neurological Disorders and Stroke in conjunction with the Anticonvulsant Screening Program (ASP) at the University of Utah (White, H. S., Woodhead, J. H., Wilcox, K. S., Stables, J. P., Kupferberg, H. J and Wolf, H. H. 2002. “General Principles: Discovery and Preclinical Development of Antiepileptic Drugs,” in Antiepileptic Drugs, 5th Edition, R. H. Levy, ed.; R. H. Mattson, B. S. Meldrum, and E. Perucca. Philadelphia, Lippincott Williams & Wilkins.), The goal of the test is to rapid identify and characterize the in vivo anticonvulsant activity of any compounds that have been shown active in PC-12 cellular based Rb^+ efflux assay.
(§2) Adult male CF-1 albino mice (18-25 g, Charles River Laboratories) are […] used for MES screening of compounds. Male Sprague-Dawley albino rats (100-125 g, Charles River Laboratories) are also used to test anticonvulsant compounds. Animals are permitted to rest and recover from transit for at least 48 hr prior to experimentation. Animals are used for AED testing only once. In some instances, the animals can be anesthetized prior to blood collection or whole brain extraction for pharmacokinetic assay. All animals are maintained and handled as outlined in standard animal care guidelines.
(§3) In the experiments, testing compounds are prepared as suspensions in 0.5% methyl cellulose (Sigma, Cat # M0512, Viscosity 4000 cP at 20° C.) in water, regardless of solubility. Dry powder compounds are initially ground with a glass rod in a test tube in several drops of methyl cellulose to create a paste and to break down any large chunks. After several minutes of grinding, the volume of the suspension is increased to the final concentration desired. The suspension is then sonicated using a Branson sonicator model 3510 in a water bath at room temperature for 15 minutes. Compound suspensions are further vortexed prior to animal dosing. In some of the cases, DMSO is used to initially solubilize compounds in small volumes and then this solution is added to the 0.5% methyl cellulose solution, in order to create more even and less aggregated compound suspensions. The final concentration of DMSO is 3.75%, an amount with no apparent toxicity or neuroprotective effects in our usual rotarod and MES tests. Methyl cellulose/DMSO compound suspensions are identically prepared for intraperitoneally (i.p.)dosing to mice or orally (p.o.) dosing to rats.
Initially the animals are weighed with an electronic scale and then marked. Data recording sheets are generated for each compound assessment. Mice or rats are dosed with the compound suspension at 0.01 mL/g of body weight. The typical injection volume range is between 180-250 μl for mice. Compounds are dosed by i.p. to mice using a 25 or 22 gauge needle, depending on the viscosity of the suspension. Rats are p.o. dosed using a flexible feeding tube, typically starting at a compound dose of 5 mg/kg.
A Rodent Electroconvulsive Stimulator (Model 200, Hamit-Darvin-Freesh, Snow Canyon Clinic, Ivins, Utah) is used for MES testing. A 60-Hz alternating current (50 mA for mice; 150 mA for rats) is delivered for 0.2 seconds through corneal electrodes to the mice. A drop of 0.5% tetracaine (Sigma, Cat. # T-7508) solution is placed on the eye prior to current delivery. The electrodes are subsequently placed gently onto the eyes of the animal and the electrical shock is initiated by triggering through a foot-pedal activator. The animals are restrained by hand and gently released as the shock is delivered and the seizure commences. Animals are monitored for hind limb tonic extension as the end point for this test. Current delivery is recorded as a measure of overall seizure-induction potential. Electrical current delivery can vary from approximately 30-55 mA (mice) or 90-160 mA (rats) depending on impedance in the animal and quality of the current delivery (i.e. correct placement of the electrodes on the cornea). […]
Background: In the maximal electroshock model the usual endpoint is tonic extension of the hind limbs.

Assay [2] relates to maximal electroshock seizure. As to the kind of experiment: rat maximal electroshock seizure (MES) test. Format: in vivo.
Text: as §1, §2
as §3, with “rats. […]” for “rats.”
A Rodent Electroconvulsive Stimulator (Model 200, Hamit-Darvin-Freesh, Snow Canyon Clinic, Ivins, Utah) is used for MES testing. […] Animals are monitored for hind limb tonic extension as the end point for this test. Current delivery is recorded as a measure of overall seizure-induction potential. […]

The term EC50 denotes the concentration at which the effect is half-maximal. One may read the ED50 as the dose at which the effect has come halfway, by size or by number of responders.

Bounds are passed on as bounds.

At KCNQ2/3 heteromultimers, `Cc1cc2c(c(C)c1NC(=O)CC(C)(C)C)CCC2Nc1ccc(C(F)(F)F)cc1` (single isomer, unassigned; (-)) [Example 15, (−) N-(4,6-dimethyl-1-(4-(trifluoromethyl)phenylamino)-2,3-dihydro-1H-inden-5-yl)-3,3-dimethylbutanamide] had an EC50 of at most 1 nM. Moreover, the “Mouse MES test” value in assay [1] was “A”. In assay [2], this molecule returned an ED50 of under 20 mg/kg.

`Cc1cc2c(c(C)c1NC(=O)CC(C)(C)C)CCC2Nc1ccc(C(F)(F)F)cc1` (centres unmarked) [Example 14, N-(4,6-dimethyl-1-(4-(trifluoromethyl)phenylamino)-2,3-dihydro-1H-inden-5-yl)-3,3-dimethylbutanamide] yielded a half-maximal effective concentration (EC50) on KCNQ2/3 heteromultimers of 1 to 10 nM. The “Mouse MES test” value in assay [1] is on record as “A”. The molecule further showed a median effective dose (ED50) in assay [2] of under 20 mg/kg.

In turn, `Cc1cc2c(c(C)c1NC(=O)CC(C)(C)C)CCC2Nc1ccc(F)cc1` (centres unmarked) [Example 11, N-(1-(4-fluorophenylamino)-4,6-dimethyl-2,3-dihydro-1H-inden-5-yl)-3,3-dimethylbutanamide] gave an EC50 on KCNQ2/3 heteromultimers of 1 to 10 nM. Besides, the “Mouse MES test” value in assay [1] was “A”. This molecule showed an ED50 in assay [2] of under 20 mg/kg.

For `Cc1cc2c(c(C)c1NC(=O)CC(C)(C)C)CCC2Nc1ccc(C(F)(F)F)nc1` (centres unmarked) [Example 24, N-(1-(6-trifluoromethylpyridin-3-ylamino)-4,6-dimethyl-2,3-dihydro-1H-inden-5-yl)-3,3-dimethylbutanamide], the concentration giving a half-maximal response (EC50) on KCNQ2/3 heteromultimers was in the range of 10 to 50 nM. For the same molecule, in assay [1], the “Mouse MES test” value is “A”.

In the case of `Cc1cc2c(c(C)c1NC(=O)CC(C)(C)C)CCC2Nc1cc(F)cc(F)c1` (centres unmarked) [Example 22, N-(4,6-dimethyl-1-(3,5-difluorophenylamino)-2,3-dihydro-1H-inden-5-yl)-3,3-dimethylbutanamide], the EC50 at KCNQ2/3 heteromultimers lay in the range of 1 to 10 nM. In addition, the “Mouse MES test” value in assay [1] was “A”.

On KCNQ2/3 heteromultimers, `Cc1cc2c(c(C)c1NC(=O)CC(C)(C)C)CCCC2Nc1cc(F)cc(F)c1` (centres unmarked) [Example 10, N-(1,3-dimethyl-5-(3,5-difluorophenylamino)-5,6,7,8-tetrahydronaphthalen-2-yl)-3,3-dimethylbutanamide] yielded an EC50 of 1 to 10 nM. Also, the “Mouse MES test” value in assay [1] is reported as “A”.

At KCNQ2/3 heteromultimers, `Cc1cc2c(c(C)c1NC(=O)CC(C)(C)C)CCC2Nc1ccc(F)cc1` (single isomer, unassigned; (-)) [Example 12, (−) N-(1-(4-fluorophenylamino)-4,6-dimethyl-2,3-dihydro-1H-inden-5-yl)-3,3-dimethylbutanamide] gave an EC50 of at most 1 nM. Besides, in assay [1], the “Mouse MES test” value is reported as “A”. In addition, the ED50 in assay [2] is under 20 mg/kg.

`Cc1cc2c(c(C)c1NC(=O)CC(C)(C)C)CCC2Nc1ccc(F)nc1` (centres unmarked) [Example 23, N-(1-(6-fluoropyridin-3-ylamino)-4,6-dimethyl-2,3-dihydro-1H-inden-5-yl)-3,3-dimethylbutanamide] registered an EC50 on KCNQ2/3 heteromultimers of 50 to 500 nM. In addition, in assay [1], the “Mouse MES test” value is “A”.
